From the NIST ThermoML archive (doi:10.1021/je060271a)
Values joined by “and” are separate entries in the source; they are usually repeats but may differ in a detail not shown here. Identical values can stand only once.

Settings: Liquid, Vibrating tube method

CCCCCCC(=O)OCC(COC(=O)CCCCCC)(COC(=O)CCCCCC)COC(=O)CCCCCC [pentaerythritol tetraheptanoate]
Settings | mass density
343.15 K, 32525 kPa | 962.8 kg/m3
343.15 K, 32544 kPa | 962.9 kg/m3
343.15 K, 32576 kPa | 962.8 kg/m3
343.15 K, 32608 kPa | 962.8 kg/m3
343.15 K, 32640 kPa | 962.9 kg/m3
343.15 K, 32679 kPa | 962.8 kg/m3
343.15 K, 32711 kPa | 963 kg/m3
343.15 K, 32736 kPa | 963 kg/m3
343.15 K, 32750 kPa | 963.1 kg/m3
343.15 K, 32774 kPa | 963.1 kg/m3
343.15 K, 32782 kPa | 963 kg/m3
343.15 K, 32814 kPa | 963.1 kg/m3
343.15 K, 32815 kPa | 963 kg/m3
343.15 K, 32853 kPa | 963.1 kg/m3
343.15 K, 32854 kPa | 962.9 kg/m3
343.15 K, 32887 kPa | 962.9 kg/m3
343.15 K, 32900 kPa | 963.1 kg/m3
343.15 K, 32920 kPa | 963.1 kg/m3
343.15 K, 32940 kPa | 963 kg/m3
343.15 K, 32953 kPa | 963.1 kg/m3
343.15 K, 32980 kPa | 963 kg/m3
343.15 K, 32993 kPa | 963.1 kg/m3
343.15 K, 33027 kPa | 963.1 kg/m3
343.15 K, 33028 kPa | 963.2 kg/m3
343.15 K, 33060 kPa | 963.1 kg/m3
343.15 K, 33068 kPa | 963.1 kg/m3
343.15 K, 33100 kPa | 963.1 kg/m3
343.15 K, 33109 kPa | 963.1 kg/m3
343.15 K, 33134 kPa | 963.3 kg/m3
343.15 K, 33174 kPa | 963.3 kg/m3
343.15 K, 33208 kPa | 963.4 kg/m3
343.15 K, 33242 kPa | 963.2 kg/m3
343.15 K, 33276 kPa | 963.3 kg/m3
343.15 K, 33317 kPa | 963.3 kg/m3
343.15 K, 33351 kPa | 963.3 kg/m3
343.15 K, 33385 kPa | 963.4 kg/m3
343.15 K, 33425 kPa | 963.3 kg/m3
343.15 K, 33459 kPa | 963.4 kg/m3
343.15 K, 33500 kPa | 963.3 kg/m3
343.15 K, 33535 kPa | 963.4 kg/m3
343.15 K, 33569 kPa | 963.4 kg/m3
343.15 K, 33604 kPa | 963.4 kg/m3
343.15 K, 33645 kPa | 963.5 kg/m3
343.15 K, 33679 kPa | 963.4 kg/m3
343.15 K, 33714 kPa | 963.4 kg/m3
343.15 K, 33721 kPa | 963.6 kg/m3
343.15 K, 33756 kPa | 963.6 kg/m3
343.15 K, 33772 kPa | 963.8 kg/m3
343.15 K, 33791 kPa | 963.6 kg/m3
343.15 K, 33816 kPa | 963.7 kg/m3
343.15 K, 33833 kPa | 963.5 kg/m3
343.15 K, 33862 kPa | 963.6 kg/m3
343.15 K, 33869 kPa | 963.6 kg/m3
343.15 K, 33906 kPa | 963.5 kg/m3
343.15 K, 33942 kPa | 963.6 kg/m3
343.15 K, 33949 kPa | 963.7 kg/m3
343.15 K, 33986 kPa | 963.7 kg/m3
343.15 K, 34002 kPa | 963.7 kg/m3
343.15 K, 34024 kPa | 963.7 kg/m3
343.15 K, 34048 kPa | 963.7 kg/m3
343.15 K, 34062 kPa | 963.7 kg/m3
343.15 K, 34095 kPa | 963.8 kg/m3
343.15 K, 34108 kPa | 963.8 kg/m3
343.15 K, 34139 kPa | 963.8 kg/m3
343.15 K, 34152 kPa | 963.8 kg/m3
343.15 K, 34166 kPa | 963.8 kg/m3
343.15 K, 34187 kPa | 963.8 kg/m3
343.15 K, 34202 kPa | 963.9 kg/m3
343.15 K, 34208 kPa | 964 kg/m3
343.15 K, 34229 kPa | 963.8 kg/m3
343.15 K, 34254 kPa | 963.7 kg/m3
343.15 K, 34259 kPa | 963.9 kg/m3
343.15 K, 34276 kPa | 963.7 kg/m3
343.15 K, 34290 kPa | 964 kg/m3
343.15 K, 34314 kPa | 964 kg/m3
343.15 K, 34315 kPa | 963.9 kg/m3
343.15 K, 34342 kPa | 964 kg/m3
343.15 K, 34365 kPa | 963.9 kg/m3 and 964.1 kg/m3
343.15 K, 34390 kPa | 964 kg/m3
343.15 K, 34409 kPa | 963.8 kg/m3
343.15 K, 34414 kPa | 964.1 kg/m3
343.15 K, 34444 kPa | 964 kg/m3
343.15 K, 34469 kPa | 963.9 kg/m3
343.15 K, 34483 kPa | 964 kg/m3
343.15 K, 34500 kPa | 964 kg/m3
343.15 K, 34527 kPa | 964.1 kg/m3
343.15 K, 34534 kPa | 964.1 kg/m3
343.15 K, 34556 kPa | 964 kg/m3
343.15 K, 34566 kPa | 964.1 kg/m3
343.15 K, 34584 kPa | 964.1 kg/m3
343.15 K, 34616 kPa | 964.2 kg/m3
343.15 K, 34624 kPa | 964.2 kg/m3
343.15 K, 34625 kPa | 964.2 kg/m3
343.15 K, 34651 kPa | 964.1 kg/m3
343.15 K, 34654 kPa | 964.2 kg/m3
343.15 K, 34656 kPa | 964.2 kg/m3
343.15 K, 34659 kPa | 964.1 kg/m3
343.16 K, 100.2 kPa | 940.6 kg/m3
343.16 K, 100.5 kPa | 940.7 kg/m3 and 940.6 kg/m3
343.16 K, 100.7 kPa | 940.6 kg/m3 and 940.7 kg/m3
343.16 K, 101 kPa | 940.7 kg/m3
343.16 K, 101.7 kPa | 940.6 kg/m3
343.16 K, 103.8 kPa | 940.6 kg/m3
343.16 K, 104.7 kPa | 940.6 kg/m3
343.16 K, 160.8 kPa | 940.8 kg/m3
343.16 K, 221.5 kPa | 940.6 kg/m3
343.16 K, 300.9 kPa | 940.7 kg/m3
343.16 K, 1395.6 kPa | 941.7 kg/m3
343.16 K, 1419.9 kPa | 941.7 kg/m3
343.16 K, 4555 kPa | 944.1 kg/m3
343.16 K, 5039.3 kPa | 944.4 kg/m3
343.16 K, 13687 kPa | 950.5 kg/m3
